Test results: EP0591765A2, “1,4-Dihydropyridine-alkoxy and alkylamino esters as antihypertensives” (BAYER AG, priority 1992, dated 1994)

tested on: SH-Ratte; experiment: Blood pressure lowering in conscious spontaneously hypertensive rats (tail cuff, oral dosing); type: in vivo; settings: Rattus norvegicus; SH-Ratte: Blutdrucksenkung >15 mm; intragastral ("oral") in Tylosesuspension; read-out: Grenzdosis
Description: Die Substanzen wurden an der wachen Ratte auf ihre blutdrucksenkende Wirkung hin untersucht. An wachen Ratten mit genetisch bedingtem Hochdruck ("spontan hypertone Ratten" des Okamoto-Stammes) wird der arterielle Blutdruck mit der "Schwanz-Manchette" in definierten Zeitabständen nach Substanzgabe unblutig gemessen. Die zu prüfenden Substanzen werden aufgeschwemmt in einer Tylosesuspension intragastral ("oral") per Schlundsonde in verschiedenen Dosen appliziert. Die erfindungsgemäßen Verbindungen senken den arteriellen Blutdruck der Hochdruckratten in klinisch relevanter Dosierung.

| Compound | minimal effective dose [mg/kg] |
| --- | --- |
| CC(=O)Oc1ccccc1C(=O)OCCOC(=O)C1=C(C)NC(C)=C(C(=O)OC(C)C)C1c1ccccc1[N+](=O)[O-] (stereo not drawn) [Beispiel 2] | 30 |
| COC(=O)C1=C(C)NC(C)=C(C(=O)OCCOC(=O)c2ccccc2OC(C)=O)C1c1ccccc1C(F)(F)F (stereo not drawn) [Beispiel 1, 5-[2-(2-Acetoxybenzoyloxy)ethoxycarbonyl]-2,6-dimethyl-4-(2-trifluormethylphenyl)-1,4-dihydropyridin-3-carbonsäuremethylester] | 10 |
| COC(=O)C1=C(C)NC(C)=C(C(=O)OCCOC(=O)c2ccccc2OC(C)=O)C1c1cccc(Cl)c1Cl (stereo not drawn) [Beispiel 6, 5-[2-(2-Acetoxybenzoyloxy)ethoxycarbonyl]-2,6-dimethyl-4-(2,3-dichlorphenyl)-1,4-dihydropyridin-3-carbonsäuremethylester] | 3 |
| CC(=O)Oc1ccccc1C(=O)OCCOC(=O)C1=C(C)NC(C)=C(C(=O)OC(C)C)C1c1ccccc1C(F)(F)F (stereo not drawn) [Beispiel 3] | 10 |
| CC(=O)Oc1ccccc1C(=O)OCCOC(=O)C1=C(C)NC(C)=C(C(=O)OC(C)C)C1c1ccccc1Cl (stereo not drawn) [Beispiel 4] | 30 |
| CCOC(=O)C1=C(C)NC(C)=C(C(=O)OCCOC(=O)c2ccccc2OC(C)=O)C1c1ccccc1C(F)(F)F (stereo not drawn) [Beispiel 5, 5-[2-(2-Acetoxybenzoyloxy)ethoxycarbonyl]-2,6-dimethyl-4-(2-trifluormethylphenyl)-1,4-dihydropyridin-3-carbonsäureethylester] | 10 |
